Experimental data: patent EP4134671A1, “METHYLENE QUINUCLIDINONE COMPANION DIAGNOSTICS” (Deutsches Krebsforschungszentrum Stiftung des öffentlichen …, priority 2021, dated 2023)

Tests used:
Zebrafish embryo = Zebrafish embryo drug toxicity assay; type: in vivo; details: embryos 48 hpf, 34°C, imaged at 72 hpf and 120 hpf; APR-246 range 10-200 µM, Vorinostat range 2.5-100 µM
Method: The toxicity of the compounds was assessed before performing in vivo experiments and a Maximum Tolerated Dose (MTD) was determined. Embryos (48 hpf) were transferred to 48-well uncoated plates (Corning) containing different concentrations of the compounds and a solvent control. The stock solution of the compounds was further dissolved in E3 buffer supplemented with 0.2mM 1-phenyl-2- thiourea (PTU, Sigma) in order to reach the desired concentrations. Three embryos were tested per concentration or solvent control. Embryos were kept at 34°C during the experiment and were imaged at 72 hpf and 120 hpf using a stereo microscope (Leica). The embryos were assessed for signs of toxicity, like death, morphology changes (curvature of body, edema) and behavioral changes. APR-246 concentration range tested: 10-200 µM, MTD: 50µM; solvent control: DMSO (0.2% and 0.5%); Vorinostat concentration range tested: 2.5-100 µM, no toxicity detected (MTD: 100µM); solvent control: DMSO (0.1%).

[1] = Clinical plasma pharmacokinetics (background); type: in vivo; details: estimated from Cmax and half-life
[2] = tested on: p53 target genes CDKN1A, PUMA and GADD45A; experiment: Real-time PCR of p53 pathway activation in IMR-32; type: cell-based; details: IMR-32 (TP53-wt), APR-246 added to doxorubicin vs doxorubicin only, 24 h
Method: (§1) Real-time PCR was performed as described previously (Fischer et al., J Mol Diagn 2005, 7, 89-96; Witt et al., Blood 2003, 101, 2001-2007). The following primers were purchased from ThermoFisher Scientific: CDKN1A (p21^WAF1/^CIP1, forward: 5'-TGGAGACTCTCAGGGTCGAAA-3'(SEQ ID NO:1), reverse: 5'-GGCGTTTGGAGTGGTAGAAATC-3'(SEQ ID NO.2)), HPRT (forward: 5'-TGACACTGGCAAAACAATGCA-3'(SEQ ID NO:3), reverse: 5'-GGTCCTTTTCACCAGCAAGCT-3'(SEQ ID NO:4)), SDHA (forward: 5'-TGGGAACAAGAGGGCATCTG-3'(SEQ ID NO:5), reverse: 5'-CCACCACTGCATCAAATTCATG-3'(SEQ ID NO:6)), and PUMA (forward: 5'-CCTGGAGGGTCCTGTACAATCT-3'(SEQ ID NO:7), reverse: 5'-GCACCTAATTGGGCTCCATCT-3'(SEQ ID NO:8)). The primer for GADD45A was purchased from Qiagen, Hilden, Germany (QT00014084). The delta-delta-Ct method was used to calculate the relative expression, and normalization was performed to neuroblastoma specific housekeeping genes SDHA and HPRT (Fischer et al., J Mol Diagn 2005, 7, 89-96).

[3] = tested on: p53 target gene expression; experiment: Real-time PCR of p53 pathway activation in SK-N-BE(2)-C; type: cell-based; details: SK-N-BE(2)-C (C135F), APR-246 added to doxorubicin, 24 h
Method: as §1

[4] = tested on: p53 target gene expression (CDKN1A and GADD45A); experiment: Real-time PCR of p53 pathway activation in SJ-GBM2; type: cell-based; details: APR-246 treatment
Method: as §1

[5] = tested on: p53 target gene expression (CDKN1A and GADD45A); experiment: Real-time PCR of p53 pathway activation in SF188; type: cell-based; details: APR-246 treatment
Method: as §1

IMR-32 cells = experiment: Flow cytometry: ROS (DCFDA) and lipid peroxidation (BODIPY); type: cell-based; details: IMR-32, 50 µM APR-246 for 5 h vs solvent control (DMSO), FACS
Method: Flow Cytometry was applied to analyze the lipid peroxidation (BODIPY staining) and to detect ROS (DCFDA staining). BODIPY 581/591 C11 Lipid peroxidation sensor staining (stock concentration: 20 mM in dimethylformamide, Invitrogen, Thermo Fisher Scientific) was used at a working concentration of 20 µM, and was diluted with RPMI without phenol red (Gibco). After inspection, the cells were detached, centrifuged and stained for 20 minutes at 37°C in a 500 µl staining solution. After centrifugation, cells were resuspended in 300 µl RPMI without phenol red, supplemented with 10% FCS. Fluorescence was measured in a FACSCanto II (BD) with 488 nm excitation and detected using a 502 nm longpass and 530/30 nm bandpass filter. Data were analyzed using FlowJo 10.x.
ROS detection was performed as previously described (Oehme et al., Proc Natl Acad Sci U S A 2013, 110, E2592-2601).

[6] = tested on: vincristine resistant SK-N-BE(2)-C; experiment: Metabolic activity assay (CellTiter-Glo), vincristine resistant cells; type: cell-based; details: vincristine resistant vs non-resistant control SK-N-BE(2)-C; 72 h, APR-246 0 - 30 µM
Method: Vincristine resistant and non-resistant SK-N-BE(2)-C (passage 30 to 45, kindly provided by M. Michaelis, University of Kent, and J. Cinatl, Goethe University, Frankfurt am Main) were cultured using IMDM with L-Glutamine, 2mM HEPES (Gibco) supplemented with 10% FCS; for the resistant cells, 20 ng/ml vincristine was added to the medium. The cells were made to be resistant to vincristine-treatment through long-term cultivation in a vincristine containing medium.
If not otherwise declared, cells were precultured for 72 h at a density of 2,000,000 cells per T75 flask (exceptions: Kelly, NB1 and IMR-32 4,000,000 per T75 flask, SJ-GBM2 1,000,000 per T75 flask). Cells were detached with trypsin-EDTA (ThermoFisher Scientific) and seeded in 96-well plates (Greiner, Microplate, 96-Well, PS, F-bottom µCLEAR®, CELLSTAR®) in 100 µl medium per well at a density of 5,000 (KNS-42, SJ-GBM2, SF188, SK-N-BE(2)-C) or 10,000 (IMR-32, NB1, Kelly) cells/well. HDAC-inhibitor screenings were performed accordingly in 384-well plates (Greiner, Microplate, 384-Well, PS, F-bottom µCLEAR®, CELLSTAR®) in 20 µl medium per well at a density of 1,250 (SK-N-BE(2)-C, SK-N-AS) or 2,500 (IMR-32) cells/well. […] Cell viability was quantified using CellTiter-Glo® 2.0 kit (Promega, Madison, USA). […] Bioluminescence was quantified on an OPTIMA plate reader (BMG Labtech, Ortenberg, Germany).

[7] = clinical; cited from earlier work

COCC1(CO)C(=O)C2CCN1CC2 (stereo not shown) [APR-246, 2-(Hydroxymethyl)-2-(methoxymethyl)-1-azabicyclo[2.2.2]octan-3-one]
Maximum Tolerated Dose (MTD) (Zebrafish embryo): 50 µM | estimated trough plasma concentration [1]: 15 to 20 µM | p53 target gene expression [2]: did not increase target gene expression | p53 target gene induction [3]: did not improve p53 target gene induction | p53 target gene expression (CDKN1A and GADD45A) [4]: no reactivation | p53 target gene expression (CDKN1A and GADD45A) [5]: no reactivation | ROS formation and lipid peroxidation (IMR-32 cells): increased ROS formation and lipid peroxidation | APR-246 sensitivity (metabolic activity) [6]: increased APR-246 sensitivity | half-life [7]: four to five | maximum plasma concentration [7]: approximately 280 µM
